Like-named read-outs stand apart in the source and are kept apart here.

Common to all, as to assay type: in vivo
Data set [1] concerns CYPDI = Cyperus difformis (small-flower flatsedge). The data set is described as follows: Greenhouse in-water herbicidal activity (large pots). To be noted: Cyperus difformis, 744 h, read-out: Percent (%) Visual Injury Ratings - 31 DAA, CYPDI. How it is done:
(§1) Weed seeds or nutlets of the desired test plant species were planted in puddled soil (mud) prepared by mixing shredded topsoil and deionized (DI) water in a 1:1 ratio in a standard cement mixer. […] Osmocote® (17:6:10 N:P:K; 0.5 teaspoon) was added to the bottom of a container. The container is a high-density polyethylene (HDPE) round container (4.163 L (1.1 gallon), 15 cm high×20.55 cm diameter; for treatment purposes, the surface area is calculated as 331 cm^2 with 1 hectare equivalent to 10^8 cm^2). The mud mixture (2,750 mL) was added to the container filling it half full. Stakes were placed horizontally in each container to create separate areas for which to plant each different plant species. Water was added on a regular basis to maintain the paddy flood, and supplemental lighting was provided with overhead metal halide 1000-Watt lamps as necessary.
(§2) Once the plants had reached the proper size (the growth stage of the various species ranged from 2 to 4 leaves), the containers were flooded with city water to a depth of 3 cm submerging the plants 80-100%. The outside of each container was measured and marked at a 3-cm line with a black permanent marker to eliminate water level variability during the trial period. Water was added daily to maintain this water depth. Triclopyr triethylammonium (as Garlon® 3 A, 360 g ae/L); triclopyr butoxyethyl ester (as Garlon® 4, 480 g ae/L); fluroxypyr methylheptyl ester (meptyl or MHE, as Starane® Ultra, 333 g ae/L); fluroxypyr acid (850 grams acid equivalent per kilogram (g ae/kg)); 2,4-dichlorophenoxyacetic acid dimethylammonium (2,4-D DMA, as Weedar® 64 EC, 456 g ae/L); 2,4-dichlorophenoxyacetic acid 2-ethylhexyl ester (2,4-D 2-EHE, as Agri Star®, 456 g ae/L); clopyralid olamine (as Stinger®, 360 g ae/L); and penoxsulam (as Grasp® SC, 240 g ai/L) were used. Each herbicide treatment for each pot was mixed in water (80 mL) and applied directly into the paddy water at rates adjusted to the surface area. The dry formulations were pre-weighed based on the rate of the active ingredient to be applied on a per unit area basis, placed in 30 mL vials, and capped. Granules were spread onto the top of the water in each pot and dispersed throughout the water. Treatments were replicated 3 times.
(§3) The treated plants and control plants were placed in a greenhouse as described above and water was added as needed to maintain a flood depth of 3 cm. […]

Data set [2] has as its system ECHCG = Echinochloa crus-galli (barnyardgrass). The data set is described as above. The conditions noted are these: 744 h, read-out: Percent (%) Visual Injury Ratings - 31 DAA, ECHCG. How it is done: as §1, §2, §3
The subject of data set [3] is MOOVA = Monochoria vaginalis (monochoria). Described as above. To be noted: Pontederia vaginalis, 744 h, read-out: Percent (%) Visual Injury Ratings - 31 DAA, MOOVA. How it is done:
as §1, §2, §3

Data set [4] concerns barnyardgrass (Echinochloa crus-galli), small-flower flatsedge (Cyperus difformis), Japanese bulrush (Schoenoplectus juncoides) and monochoria (Monochoria …). The data set is described as follows: In-water application, weed efficacy (summary statement). The conditions noted are these: application rate of about 35 to about 280 g ae/ha.
The subject of another data set is rice. The data set is described as follows: In-water application, crop safety (summary statement).
The test system of data set [5] is ORYSP = Oryza sativa (transplanted paddy rice). The data set is described as follows: Greenhouse in-water application (large pots), crop injury. How it is done:
as §1, §2, §3

Data set [6] has as its system CYDPI = Cyperus difformis (small-flower flatsedge). The data set is described as follows: Greenhouse in-water herbicidal activity (small pots). The conditions noted are these: 35 g ae/ha (as headed) in-water. The source says:
(§4) Weed seeds of the desired test plant species were planted in puddled soil (mud) prepared by mixing a non-sterilized mineral soil (approximately 50 percent silt, 26 percent clay, and 24 percent sand, with a pH of about 7.6 and an organic matter content of about 2.9 percent) and water at a 1:1 volumetric ratio. The prepared mud was dispensed in 365 milliliter (mL) aliquots into 16-ounce (oz.) non-perforated plastic pots with a surface area of 86.59 square centimeters (cm^2) leaving a headspace of 3 centimeters (cm) in each pot. Mud was allowed to dry overnight prior to planting or transplanting. Rice seeds were planted in Sun Gro® MetroMix® 360 planting mixture, which typically has a pH of 6.0 to 6.8 and an organic matter content of about 30 percent, in plastic plug trays. Seedlings at the second or third leaf stage of growth were transplanted into 840 mL of mud contained in 32-oz. non-perforated plastic pots with a surface area of 86.59 cm^2 four days prior to herbicide application. The paddy was created by filling the headspace of the pots with 2.5 to 3 cm of water. When required to ensure good germination and healthy plants, a fungicide treatment and/or other chemical or physical treatment was applied. The plants were grown for 4-22 days (d) in a greenhouse with an approximate 14-hour (h) photoperiod which was maintained at about 29° C. during the day and 26° C. during the night. Nutrients were added as Osmocote® (19:6:12, Nitrogen:Phosphorus:Potassium (N:P:K)+minor nutrients) at 2 g per 16 oz. pot and 4 g per 32 oz. pot. Water was added on a regular basis to maintain the paddy flood, and supplemental lighting was provided with overhead metal halide 1000-Watt lamps as necessary. The plants were used for testing when they reached the second or third true leaf stage.
(§5) Triclopyr triethylammonium (as Grandstand® R, 359.5 grams acid equivalent per liter (g ae/L)); fluroxypyr methylheptyl ester (meptyl or MHE, as Starane™, 179.8 g ae/L); 2,4-dichlorophenoxyacetic acid dimethylammonium (2,4-D DMA, as Weedar® 64, 455.4 g ae/L); and penoxsulam (as Grasp® SC, 239.7 grams active ingredient per liter (g ai/L) were used. Measured amounts of formulated compounds were placed in individual 120 mL glass vials and were dissolved in 40 mL of an aqueous mixture containing 1.25% volume per volume (v/v) Agri-Dex® crop oil concentrate. Generally, multiple concentrations were tested utilizing the same stock solution. Applications were made by injecting an appropriate amount of the application solution into the aqueous layer of the paddy. Control plants were treated in the same manner with the solvent blank.
(§6) The treated plants and control plants were placed in a greenhouse as described above and water was added as needed to maintain a paddy flood. After approximately 3 weeks the condition of the test plants, compared with that of the untreated plants, was determined visually and scored on a scale of 0 to 100 percent where 0 corresponds to no injury or growth reduction and 100 corresponds to complete kill.

For data set [7], the system named is ECHCG = Echinochloa crus-galli (barnyardgrass). The data set is described as above. The conditions noted are these: 35 g ae/ha (as headed) in-water.
From the text: as §4, §5, §6

Data set [8] relates to MOOVA = Monochoria vaginalis (monochoria). Described as above. The conditions noted are these: 35 g ae/ha (as headed) in-water.
From the text: as §4, §5, §6

Data set [9] concerns SCPJU = Schoenoplectus juncoides (Japanese bulrush). The description is as above. To be noted: 35 g ae/ha (as headed) in-water.
From the text: as §4, §5, §6

Where [10] appears, read: 280 g ae/ha in-water, greenhouse large pots, 31 DAA.
Setting [11] is: 1120 g ae/ha in-water, greenhouse large pots, 31 DAA.
Setting [12] is: 560 g ae/ha in-water, greenhouse large pots, 31 DAA.
Setting [13] is: 35 g ai/ha in-water, greenhouse large pots, 31 DAA.
Setting [14] is: application rates of less than or equal to 280 g ae/ha.

As to `Nc1c(Cl)c(F)nc(OCC(=O)O)c1Cl` [Fluroxypyr acid, 2-[(4-amino-3,5-dichloro-6-fluoro-2-pyridinyl)oxy]-acetic acid], the figures for the pest or weed control at 280 g/ha in data set [1] (setting [10]), in data set [2] (setting [10]) and in data set [3] (setting [10]) were 100%, 27% and 98%, respectively. Moreover, the pest or weed control at 1120 g/ha in data set [1] (setting [11]) was found to be 100%; in data set [2] (setting [11]), 45%; in [3] (setting [11]), 100%. In addition, in [2] (setting [12]), the pest or weed control at 560 g/ha is 28%. Also, the “efficacy on several commercially relevant weeds” value (“efficacy” for short) in [4] is given as “highly efficacious”. The “crop safety exhibited by rice” value with rice (in vivo) is “little to no crop injury”.

Turning to `O=C(O)c1nc(Cl)ccc1Cl` [Clopyralid olamine (Stinger ®), 2-hydroxyethanaminium 3,6-dichloro-2-pyridinecarboxylate], the pest or weed control at 280 g/ha came out at 7% in data set [1], 17% in [2] and 10% in [3]. Besides, the pest or weed control at 560 g/ha in data set [1] came out at 53%; in data set [2] it was 4%; in data set [3] it was 18%. Besides, the pest or weed control at 1120 g/ha in data set [1] turned out to be 59%; in data set [2], 5%; in [3], 23%. In addition, the “Percent (%) Visual Injury Ratings - 31 DAA, ORYSP” value in [5] (280 g ae/ha in-water), in data set [5] (560 g ae/ha in-water) and in [5] (1120 g ae/ha in-water) was 0% throughout.

On to `COc1cnc(OC)n2nc(NS(=O)(=O)c3c(OCC(F)F)cccc3C(F)(F)F)nc12` [Penoxsulam (Grasp ® SC), penoxsulam], for which the “Percent (%) Visual Injury Ratings - 20 DAA, CYDPI” value in data set [6] was 100%. Further, in [7], the “Percent (%) Visual Injury Ratings - 20 DAA, ECHCG” value worked out at 99%. In data set [8], the “Percent (%) Visual Injury Ratings - 20 DAA, MOOVA” value was found to be 99%. In addition, the “Percent (%) Visual Injury Ratings - 20 DAA, SCPJU” value in [9] is 100%. For the same compound, the figures for the pest or weed control at 35 g/ha in data set [1] (setting [13]), in data set [2] (setting [13]) and in [3] (setting [13]) were 99%, 100% and 100%, respectively.

Turning to `O=C(O)c1nc(Cl)ccc1Cl` [clopyralid, 3,6-dichloro-2-pyridinecarboxylic acid], the “efficacy” value in [4] is “highly efficacious”. Further, the “crop safety exhibited by rice” value in the data set with rice (setting [14]) is given as “little to no crop injury”.

With `CCCCC(CC)COC(=O)COc1ccc(Cl)cc1Cl` (stereo not shown) [2,4-D 2-ethylhexyl ester (Agri Star ®)], the figures for the pest or weed control at 280 g/ha in data set [1] (setting [10]), in data set [2] (setting [10]) and in data set [3] (setting [10]) were 100%, 35% and 100%, respectively. The values for the pest or weed control at 560 g/ha in data set [1] (setting [12]), in [2] (setting [12]) and in data set [3] (setting [12]) were 100%, 65% and 100%, respectively. The pest or weed control at 1120 g/ha came to 100% in data set [1] (setting [11]), 87% in [2] (setting [11]) and 100% in [3] (setting [11]).

In the case of `CCCCOCCOC(=O)COc1nc(Cl)c(Cl)cc1Cl` [Triclopyr butoxyethyl ester (Garlon ® 4), 2-butoxyethyl 2[(3,5,6-trichloro-2-pyridinyl)oxy]acetate], the pest or weed control at 280 g/ha in data set [1] (setting [10]) worked out at 100%; in [2] (setting [10]), 60%; in [3] (setting [10]), 100%. For the same compound, the figures for the pest or weed control at 560 g/ha in data set [1] (setting [12]), in data set [2] (setting [12]) and in data set [3] (setting [12]) were 100%, 78% and 100%, respectively. In addition, the pest or weed control at 1120 g/ha stood at 100% in data set [1] (setting [11]), 95% in data set [2] (setting [11]) and 100% in data set [3] (setting [11]). Moreover, the entries for the “Percent (%) Visual Injury Ratings - 31 DAA, ORYSP” value in data set [5] (280 g ae/ha in-water), in data set [5] (560 g ae/ha in-water) and in data set [5] (1120 g ae/ha in-water) were 3%, 22% and 72%, respectively.

As to `O=C(O)COc1nc(Cl)c(Cl)cc1Cl` [triclopyr, 2-[(3,5,6-trichloro-2-pyridinyl)oxy]acetic acid], in [4], the “efficacy” value was “highly efficacious”. The “crop safety exhibited by rice” value with rice (setting [14]) is listed as “little to no crop injury”.

Turning to `O=C(O)COc1ccc(Cl)cc1Cl` [2,4-D, (2,4-dichlorophenoxy)acetic acid], in [4], the “efficacy” value is recorded as “highly efficacious”. Moreover, in the data set with rice (setting [14]), the “crop safety exhibited by rice” value is reported as “little to no crop injury”.

(Values after US20170055529A1, “BROAD SPECTRUM WEED CONTROL IN FLOODED RICE BY IN-WATER APPLICATION OF AUXIN HERBICIDES” (priority 2015, published 2017).)
